# US7005124B2, “Dendritic-antineoplastic drug delivery system” (priority 1997, dated 2006)
# Read-outs that look alike come from different tables or passages of the source.
# Assays:
# B16F10 [1] = test: Cell cytotoxicity of dendrimer-platinate, MTT; format: cell-based, murine; details: Pt-equiv.
# Protocol: (§1) All cellular growth and cytotoxic incubations were carried out in a cell incubator at 37° C. and 5% CO2 atmosphere.
# (§2) Cell density was assessed using an improved neurenbrow hemocytometer (Sigma). The cells were washed with PBS twice and fresh RPMI media (supplemented with FCS) added, the cells were then seeded in a microtitre plate. The cells were left for 24 hours to recover and re-adhere. If cells were in a suspension they were spun at 1000×g and resuspended in fresh media.
# (§3) Some cells were left in media only to act as cellular controls. The cells were left in the incubator for 72 hours, and checked occasionally for yeast or bacterial contamination. Five hours prior to the incubation time end point, at 67 hours, 20 μl of MTT was added and the cells left for the final 5 hours. Then cellular media was removed and 100 μl of optical grade DMSO (Sigma) was added and the MTT crystals dissolved.
# L1210 = L1210 ip
# Protocol: (§4) Alternatively drug was administered I.V. to mice bearing S.C. implanted B16F10 when the tumor reached palpable size (50–100 mm^2). Animal weight, tumor size and animal survival were monitored (UK guidelines for animal experiments involving neoplasia were followed.)
# (§5) Li 210 or B16F10 cells were injected at a cell density into a mouse (DBA2 or C57 respectively, 25 g) at a cell density of 1×10^5 (0.9% saline solution) into the intraperitoneal (I.P. 100 μl) cavity. […] The mouse body weight and general toxicity was also monitored according to UK guidelines in the use of animals used in neoplasia studies. At the end point the gross morphology of the organs was noted.
# Cor L23 = test: Cell cytotoxicity of dendrimer-platinate, MTT; format: cell-based, human; details: Pt-equiv.
# Protocol: as §1, §2, §3
# CCRF-CEM = test: Cell cytotoxicity of dendrimer-platinate, MTT; format: cell-based, human; details: Pt-equiv.
# Protocol: as §1, §2, §3
# B16F10 [2] = test: Activity against B16F10 I.P., I.P. injection; format: in vivo, C57 mice; details: dose 5 Pt-equiv mg/Kg, day 1
# Protocol: as §4, §5
compound,measurement,setting,value
"N.N.[Cl][Pt][Cl] [Cisplatin, cis-diamminedichloroplatinum]",IC50 Values,B16F10 [1],9 µg/mL
same,T/C,"L1210; dose 2 Pt-equiv mg/Kg I.P. days 1, 2, 3",171
same,T/C,"L1210; dose 3 Pt-equiv mg/Kg I.P. days 1, 2, 3",64
same,IC50 Values,Cor L23,1 µg/mL
same,IC50 Values,CCRF-CEM,5 µg/mL
same,T/C,B16F10 [2],89
